According to patent US20110200992A1, “Biological Compositions, Articles and Methods for Monitoring Sterilization Processes” (priority 2008, published 2011):

How the values were obtained:
[1] = test system: Gb. stearothermophilus spores; assay: Fluorescence with spores after dye medium was exposed to sterilization temperature, autoclaved vs not autoclaved (Example 2); format: cell-based; settings: ex 485/em 530 nm, 50° C.
Experimental: Dilutions of a Gb. stearothermophilus spore suspension described above were subjected to heat shock treatment at 80° C. for 10 min. The dilutions were prepared using Sterile Water For Irrigation (Baxter, Deerfield, Ill.) and tested at a final population of 1×10^6 and 0 spores. The spore dilutions (100 microlitres) were combined with 200 microlitres of medium, consisting of Acridine Orange and nutrients as described in Example 1, that had been subjected to a 15 min 121° C. (250° F.) vacuum assisted cycle in a AMSCO Scientific SG-120 Eagle/Century Series steam sterilizer (Steris, Mentor Ohio), and each of the resulting mixtures was added to a well of a plate. Un-autoclaved medium was used as a control. […] The experiment was performed with both heat shocked and non-heat shocked spores. A summary of the normalized data is listed below in Tables 2a-2c.

[2] = test system: Gb. stearothermophilus spores on a polypropylene carrier; assay: Change in fluorescence of biological indicators after lethal and sub-lethal sterilization cycles (Example 4); format: cell-based; settings: 485/530 nm, 1×E5 spores, 1:5000 dye, incubated 50° C.
Experimental: Eighty biological indicators (BIs) were prepared by coating a suspension of Gb. stearothermophilus spores at a concentration of 1×E5 on a polypropylene carrier. Following drying at 37° C. for 20 min, the BIs were exposed to commonly used sterilization conditions as described below in Tables 4a, 4b, and 4c. Following sterilization the BIs were activated with a medium, exposed to the same sterilization conditions as the spores and containing of a 1:5000 dilution of Acridine Orange along with glucose, fructose, and potassium chloride in water (1 mg/ml, 1 mg/ml, and 3.3 mgs/ml, respectively), 0.02 M alanine, 0.01 M valine, 0.002 M isoleucine, 0.2 mg/ml inosine, and a small amount of Bromo Cresol Purple. The combination of the medium with the spores on the carrier, subjected to lethal and sub-lethal sterilization processes shown in Tables 4a-4c, was incubated at 50° C. for 60 min, and fluorescence intensity readings were taken at 30 and 60 min using excitation at 485 nm and emission at 530 nm.

[3] = 1 min in 132° C. (270° F.) Gravity Cycle, AMSCO EAGLE Model 2013 Steam Sterilizer
[4] = 1 min in 132° C. (270° F.) Vacuum Assisted Cycle, Joslyn BIER Vessel
[5] = 3 min in 132° C. (270° F.) Gravity Cycle, AMSCO EAGLE Model 2013 Steam Sterilizer
[6] = 3 min in 132° C. (270° F.) Vacuum Assisted Cycle, Joslyn BIER Vessel
[7] = 5 min in 121° C. (250° F.) Vacuum Assisted Cycle, Joslyn BIER Vessel
[8] = 15 min in 121° C. (250° F.) Vacuum Assisted Cycle, Joslyn BIER Vessel

CN(C)c1ccc2cc3ccc(N(C)C)cc3nc2c1 [Acridine Orange]
Fluorescence intensity (normalized) ([1]; Autoclaved (15 min 121° C.) dye + nutrient medium, heat shocked E6 germinating spores, 0 min): 0
Fluorescence intensity (normalized) ([1]; Autoclaved (15 min 121° C.) dye + nutrient medium, heat shocked E6 germinating spores, 30 min): 6211.5
Fluorescence intensity (normalized) ([1]; Autoclaved (15 min 121° C.) dye + nutrient medium, heat shocked E6 germinating spores, 60 min): 8652.5
Fluorescence intensity (normalized) ([1]; Autoclaved (15 min 121° C.) dye + nutrient medium, heat shocked E6 germinating spores, 90 min): 9955.5
Fluorescence intensity (normalized) ([1]; Autoclaved (15 min 121° C.) dye + nutrient medium, heat shocked E6 germinating spores, 120 min): 10376.5
Fluorescence intensity (normalized) ([1]; Autoclaved (15 min 121° C.) dye + nutrient medium, heat shocked E6 germinating spores, 150 min): 10694.25
Fluorescence intensity (normalized) ([1]; Autoclaved (15 min 121° C.) dye + nutrient medium, heat shocked E6 germinating spores, 180 min): 10803
Fluorescence intensity (normalized) ([1]; Autoclaved (15 min 121° C.) dye + nutrient medium, heat shocked, 0 spores, 0 min): 0
Fluorescence intensity (normalized) ([1]; Autoclaved (15 min 121° C.) dye + nutrient medium, heat shocked, 0 spores, 30 min): 522.25
Fluorescence intensity (normalized) ([1]; Autoclaved (15 min 121° C.) dye + nutrient medium, heat shocked, 0 spores, 60 min): 588.75
Fluorescence intensity (normalized) ([1]; Autoclaved (15 min 121° C.) dye + nutrient medium, heat shocked, 0 spores, 90 min): 779.75
Fluorescence intensity (normalized) ([1]; Autoclaved (15 min 121° C.) dye + nutrient medium, heat shocked, 0 spores, 120 min): 870
Fluorescence intensity (normalized) ([1]; Autoclaved (15 min 121° C.) dye + nutrient medium, heat shocked, 0 spores, 150 min): 886.5
Fluorescence intensity (normalized) ([1]; Autoclaved (15 min 121° C.) dye + nutrient medium, heat shocked, 0 spores, 180 min): 960.5
Fluorescence intensity (normalized) ([1]; Autoclaved (15 min 121° C.) dye + nutrient medium, non-heat shocked E6 germinating spores, 0 min): 0
Fluorescence intensity (normalized) ([1]; Autoclaved (15 min 121° C.) dye + nutrient medium, non-heat shocked E6 germinating spores, 14 min): 609
Fluorescence intensity (normalized) ([1]; Autoclaved (15 min 121° C.) dye + nutrient medium, non-heat shocked E6 germinating spores, 30 min): 2599
Fluorescence intensity (normalized) ([1]; Autoclaved (15 min 121° C.) dye + nutrient medium, non-heat shocked E6 germinating spores, 44 min): 4753
Fluorescence intensity (normalized) ([1]; Autoclaved (15 min 121° C.) dye + nutrient medium, non-heat shocked E6 germinating spores, 58 min): 6508
Fluorescence intensity (normalized) ([1]; Autoclaved (15 min 121° C.) dye + nutrient medium, non-heat shocked, 0 spores, 0 min): 0
Fluorescence intensity (normalized) ([1]; Autoclaved (15 min 121° C.) dye + nutrient medium, non-heat shocked, 0 spores, 14 min): −212
Fluorescence intensity (normalized) ([1]; Autoclaved (15 min 121° C.) dye + nutrient medium, non-heat shocked, 0 spores, 30 min): −263
Fluorescence intensity (normalized) ([1]; Autoclaved (15 min 121° C.) dye + nutrient medium, non-heat shocked, 0 spores, 44 min): −278
Fluorescence intensity (normalized) ([1]; Autoclaved (15 min 121° C.) dye + nutrient medium, non-heat shocked, 0 spores, 58 min): −287
Fluorescence intensity (normalized) ([1]; Not autoclaved dye + nutrient medium, heat shocked E6 germinating spores, 0 min): 0
Fluorescence intensity (normalized) ([1]; Not autoclaved dye + nutrient medium, heat shocked E6 germinating spores, 30 min): 11623.75
Fluorescence intensity (normalized) ([1]; Not autoclaved dye + nutrient medium, heat shocked E6 germinating spores, 60 min): 17121.25
Fluorescence intensity (normalized) ([1]; Not autoclaved dye + nutrient medium, heat shocked E6 germinating spores, 90 min): 18928.25
Fluorescence intensity (normalized) ([1]; Not autoclaved dye + nutrient medium, heat shocked E6 germinating spores, 120 min): 19653.75
Fluorescence intensity (normalized) ([1]; Not autoclaved dye + nutrient medium, heat shocked E6 germinating spores, 150 min): 19884.5
Fluorescence intensity (normalized) ([1]; Not autoclaved dye + nutrient medium, heat shocked E6 germinating spores, 180 min): 20008.25
Fluorescence intensity (normalized) ([1]; Not autoclaved dye + nutrient medium, heat shocked, 0 spores, 0 min): 0
Fluorescence intensity (normalized) ([1]; Not autoclaved dye + nutrient medium, heat shocked, 0 spores, 30 min): 813
Fluorescence intensity (normalized) ([1]; Not autoclaved dye + nutrient medium, heat shocked, 0 spores, 60 min): 875.75
Fluorescence intensity (normalized) ([1]; Not autoclaved dye + nutrient medium, heat shocked, 0 spores, 90 min): 996.25
Fluorescence intensity (normalized) ([1]; Not autoclaved dye + nutrient medium, heat shocked, 0 spores, 120 min): 1099
Fluorescence intensity (normalized) ([1]; Not autoclaved dye + nutrient medium, heat shocked, 0 spores, 150 min): 1114.5
Fluorescence intensity (normalized) ([1]; Not autoclaved dye + nutrient medium, heat shocked, 0 spores, 180 min): 990.25
Fluorescence intensity (normalized) ([1]; Not autoclaved dye + nutrient medium, non-heat shocked E6 germinating spores, 0 min): 00
Fluorescence intensity (normalized) ([1]; Not autoclaved dye + nutrient medium, non-heat shocked E6 germinating spores, 14 min): 597
Fluorescence intensity (normalized) ([1]; Not autoclaved dye + nutrient medium, non-heat shocked E6 germinating spores, 30 min): 2878
Fluorescence intensity (normalized) ([1]; Not autoclaved dye + nutrient medium, non-heat shocked E6 germinating spores, 44 min): 5314
Fluorescence intensity (normalized) ([1]; Not autoclaved dye + nutrient medium, non-heat shocked E6 germinating spores, 58 min): 7289
Fluorescence intensity (normalized) ([1]; Not autoclaved dye + nutrient medium, non-heat shocked, 0 spores, 0 min): 0
Fluorescence intensity (normalized) ([1]; Not autoclaved dye + nutrient medium, non-heat shocked, 0 spores, 14 min): −334
Fluorescence intensity (normalized) ([1]; Not autoclaved dye + nutrient medium, non-heat shocked, 0 spores, 30 min): −456
Fluorescence intensity (normalized) ([1]; Not autoclaved dye + nutrient medium, non-heat shocked, 0 spores, 44 min): −484
Fluorescence intensity (normalized) ([1]; Not autoclaved dye + nutrient medium, non-heat shocked, 0 spores, 58 min): −476
Average Change in Fluorescence at 30 min [2, 3]: 1462
Average Change in Fluorescence at 60 min [2, 3]: 1808
Average Change in Fluorescence at 30 min [2, 4]: 2607
Average Change in Fluorescence at 60 min [2, 4]: 2762
Average Change in Fluorescence at 30 min [2, 5]: 201
Average Change in Fluorescence at 60 min [2, 5]: 22
Average Change in Fluorescence at 30 min [2, 6]: 279
Average Change in Fluorescence at 60 min [2, 6]: 386
Average Change in Fluorescence at 30 min [2, 7]: 2774
Average Change in Fluorescence at 60 min [2, 7]: 3347
Average Change in Fluorescence at 30 min [2, 8]: 383
Average Change in Fluorescence at 60 min [2, 8]: 353
